Experimental data as given in patent publication US20260015376A1, “CONTINUOUS FLOW METHODS FOR PRODUCING MANNOSE-1-PHOSPHATE, POLYMORPHS OF MANNOSE-1-PHOSPHATE, AND COMPOSITIONS AND USES RELATED THERETO” (Glycomine, Inc., priority 2022, published 2026).
“Also recorded” adds a separate entry of the source.

Legend:
Type in all cases: physicochemical
[1] = Water sorption by dynamic vapor sorption (DVS) at 25° C.
Description: Water sorption behavior of […] Form C was investigated using dynamic vapor sorption (DVS) at 25° C. The relative humidity (RH) was increased from 0-80%, with a minimum equilibration time of 60 min and a maximum equilibration time of 360 min.

[2] = Compression study (hydraulic press, XRPD)
Description: About 10 mg of […] Form C was compressed for 5 minutes under 5 MPa or 10 MPa with a hydraulic press. Potential form change and degree of crystallinity were evaluated by XRPD.

[3] = Dry grinding study (XRPD); details: ground manually with mortar and pestle for 3 min
Description: About 10 mg of […] Form C was ground manually with a mortar and a pestle for 3 min. Potential form change and degree of crystallinity were evaluated by XRPD.

[4] = Wet granulation simulation (XRPD); details: ethanol as the granulation solvent, dried 10 min at ambient conditions
Description: Ethanol was added dropwise to about 10 mg of M1P Form C until the sample was wetted sufficiently. The wet sample was ground gently in a mortar and a pestle. Post granulation, the sample was dried under ambient conditions for 10 min. Potential form change and degree of crystallinity were evaluated by XRPD.

[5] = 12-month stability, polymorph characterization by XRPD and purity by chromatography; details: −20° C., 25° C./60% RH, 40° C./75% RH, 5° C.
Description: […] Form C was produced in accordance with the examples above. XRPD was used on samples taken at 1, 3, 6, 9 and 12 months, and tested under four conditions: • -20° C.±5° C., • 25° C.±2° C. at 60% relative humidity (RH)±5% RH, • 40° C.±2° C. at 75% RH±5% RH and • 5° C.±3° C.

[6] = Water activity experiments to determine relative stability of Forms A, B and C in water/EtOH systems (XRPD)
Description: […]. Water activity experiments were conducted at 25° C. in several different water/EtOH systems to determine relative stability of M1P Forms A, B and C under these conditions.
About 5 mg each of M1P Forms A, B, and C were combined and added to 0.2 mL saturated solutions of a water/EtOH system. The resulting suspensions were stirred at 5° C., 25° C., or 50° C. for 4 days or 11 days. After 4 or 11 days, the solids (wet cakes) were isolated by centrifugation filtration and analyzed by XRPD to determine which Form(s) remained.

Compound: O=P([O-])([O-])O[C@H]1O[C@H](CO)[C@@H](O)[C@H](O)[C@@H]1O.[K+].[K+] [Form C]
- form change by XRPD following the DVS experiment ([1]; 80% RH at 25° C.): no form change was observed
- H2O absorbed ([1]; DVS, 25° C., 80% RH): 1.9 % (w/w)
- hygroscopicity ([1]; DVS, 25° C., RH 0-80%): only slightly hygroscopic; also recorded: low hygroscopicity
- % Water absorption ([1]; DVS, 25° C., relative humidity 0%): 0.01%
- % Water absorption ([1]; DVS, 25° C., relative humidity 10%): 0.51%
- % Water absorption ([1]; DVS, 25° C., relative humidity 20%): 0.59%
- % Water absorption ([1]; DVS, 25° C., relative humidity 30%): 0.63%
- % Water absorption ([1]; DVS, 25° C., relative humidity 40%): 0.65%
- % Water absorption ([1]; DVS, 25° C., relative humidity 50%): 0.69%
- % Water absorption ([1]; DVS, 25° C., relative humidity 60%): 0.73%
- % Water absorption ([1]; DVS, 25° C., relative humidity 70%): 0.82%
- % Water absorption ([1]; DVS, 25° C., relative humidity 80%): 1.93%
- form change by XRPD ([2]; compressed for 5 minutes under 5 MPa): no form change was observed
- degree of crystallinity by XRPD ([2]; compressed for 5 minutes under 5 MPa and 10 MPa): crystallinity decreased
- form change by XRPD ([2]; compressed for 5 minutes under 10 MPa): no form change was observed
- degree of crystallinity by XRPD [3]: crystallinity decreased
- form change by XRPD [3]: no form change
- form change by XRPD [4]: no form change
- changes to the polymorphic form by XRPD ([5]; 1, 3, 6, 9 and 12 months): no observed changes to the polymorphic form
- changes in purity by chromatography ([5]; 12-month stability): no substantial changes observed
- stability over water activity range [6]: stable over a wide water activity range
